Each structure is given as a SMILES string.

A short description of data set [1]: logP by HPLC on a C18 phase inversion column, EEC Directive 79/831 Annex V.A8, method b) (HP1100, 5-95% acetonitrile in 1.70 min). It counts as physicochemical. The conditions noted are these: HPLC phase inversion (reversed-phase) C18 column; HPLC method b), eluent acetonitrile/water with formic acid. As to the method: ^b) Note regarding the determination of the log P values and mass detection: The log P values given were determined in accordance with EEC Directive 79/831 Annex V.A8 by HPLC (High Performance Liquid Chromatography) on a phase inversion column (C18). HP1100; 50*4.6 Zorbax Eclipse Plus C18 1.8 micron; eluent A: acetonitrile (0.1% formic acid); eluent B: water (0.08% formic acid); linear gradient from 5% acetonitrile to 95% acetonitrile in 1.70 min, then 95% acetonitrile for a further 1.00 min; oven temperature 55° C.; flow: 2.0 ml/min. The mass detection is carried out via the mass detector Micromass ZQ2000 from Waters.

Another data set concerns Phaedon cochleariae. The experiment in a line: Phaedon test (PHAECO spray treatment). It is filed as in vivo. The settings on record: foliar, application rate 500 g/ha, sprayed Chinese cabbage leaf discs, mustard beetle larvae, 100% = all larvae killed, read-out: effect in %. As to the method:
[table] To produce a suitable active ingredient preparation, part by weight of active ingredient is mixed with the stated amounts of solvents and emulsifier, and the concentrate is diluted to the desired concentration with emulsifier-containing water. Discs of Chinese cabbage leaves (Brassica pekinensis) are sprayed with an active ingredient preparation of the desired concentration and, after drying, populated with larvae of the mustard beetle (Phaedon cochleariae). After the desired time, the effect in % is determined. Here, 100% means that all of the beetle larvae have been killed; 0% means that no beetle larvae have been killed.

Data set [2] is described as follows: logP by HPLC on a C18 phase inversion column, EEC Directive 79/831 Annex V.A8, method a) (Agilent 1100, 10-95% acetonitrile in 4.25 min). It counts as physicochemical. The settings on record: read-out: logP. The method in brief: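 Following EEC Directive 79/831 Annex V.A8, logP is obtained from retention on a 1.8 micron C18 column (50×4.6 mm) at 55 °C and 2.0 ml/min. Elution ran 10→95% acetonitrile (0.1% formic acid) against water (0.09% formic acid) in 4.25 min, held 1.25 min; mass detection used.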

Setting [3] is: HPLC phase inversion (reversed-phase) C18 column, HPLC method a), eluent acetonitrile/water with formic acid.

For `C#CCNC(=O)c1cc(NC(=O)c2c(C(F)(F)F)c(C(F)(F)C(F)(F)F)nn2C)ccc1Cl` [Ik-3, N-[4-Chloro-3-(prop-2-yn-1-ylcarbamoyl)phenyl]-1-methyl-3-(pentafluoroethyl)-4-(trifluoromethyl)-1H-pyrazole-5-carboxamide], in data set [1], the chromatographic logP turned out to be 3.11. In the data set with Phaedon cochleariae, the pest or weed control at 500 g/ha was at least 80%.

In the case of `Cn1nc(C(F)(F)C(F)(F)F)c(C(F)(F)F)c1C(=O)Nc1ccc(Cl)c(C(=O)NC2CC2)c1` [Ik-1, N-[4-Chloro-3-(cyclopropylcarbamoyl)phenyl]-1-methyl-3-(pentafluoroethyl)-4-(trifluoromethyl)-1H-pyrazole-5-carboxamide], the chromatographic logP in data set [2] (setting [3]) turned out to be 3.34; in data set [2] (HPLC phase inversion (reversed-phase) C18 column, HPLC, method a)) it was 3.34. The pest or weed control at 500 g/ha with Phaedon cochleariae was at least 80%.

Regarding `O=C(NC1CC1)c1cc(NC(=O)c2cnc(Cl)nc2C(F)(F)F)ccc1Cl` [Ib-1, 2-chloro-N-[4-chloro-3-(cyclopropylcarbamoyl)phenyl]-4-(trifluoromethyl)pyrimidine-5-carboxamide], the chromatographic logP in data set [2] (setting [3]) is 2.36. In the data set on Phaedon cochleariae, the pest or weed control at 500 g/ha was at least 80%.

(Values after US8946234B2, “Halogen-substituted compounds” (Bayer CropScience AG, priority 2008, dated 2015).)
